Data published in patent US20250243203A1, “NICOTINAMIDE- AND BENZAMIDE-BASED COMPOUNDS, CONJUGATES, AND COMPOSITIONS AS INHIBITORS OF TRANSLATIONAL- AND TRANSCRIPTIONAL-RELATED KINASES” (PURDUE RESEARCH FOUNDATION, priority 2022, published 2025).
Like-named read-outs stand apart in the source and are kept apart here.

Tests used:
[1] = system: multiple myeloma cell lines; test: Inhibition of multiple myeloma cell lines; format: cell-based, human; conditions: FIG. 4
CT-26 C2 tumor cells = test: CT-26 in vivo tumor reduction; set-up: species or system BALB/c female mouse; conditions: CT-26, day 17 from start of dosing, oral QD
Method: Each BALB/c female mouse was inoculated subcutaneously at the right flank with CT-26 C2 tumor cells (0.3×10^6/mouse) in 0.1 mL PBS for tumor development. Treatments for the efficacy study were started on day 10 after tumor inoculation when the average tumor size reached approximately 71 mm^3. Each group consisted of 6 tumor-bearing mice. Vehicle control was 25 mM citrate buffer (pH 2.5). HSND80 was dosed orally QD at 15 mg/Kg for 4 days and 10 mg/Kg afterwards. HSND100 was dosed at 15 mg/Kg. Mice were dosed 5 days on and 2 days off (drug holiday). Tumors were measured every other day (L, W, H) to give tumor volume in mm^3.

[2] = system: 4T1 (breast) syngeneic tumor; test: 4T1 in vivo tumor reduction; set-up: species or system Female Balb-C mice; conditions: 15 mg/kg orally QD, 5 days on 2 days off
Method: 0.5×10^6 4T1 cells were injected subcutaneously (SQ) into the right flank of Female Balb-C mice. Each group consisted of 5 tumor-bearing mice. 7 days after tumor implantation, mice were dosed orally QD with vehicle control (5% DMSO, 40% PEG300, 5% tween 80, 50% water) or HSND80 (15 mg/Kg). Mice were dosed 5 days on and 2 days off (drug holiday). Tumors were measured every other day (L, W, H) to give tumor volume in mm^3.

Caki-1 (renal cancer) = test: Growth inhibition of Caki-1 (NCI-60 human tumor cell line screen); format: cell-based; conditions: 200 nM
p70S6K = p70S6K (Homo sapiens, UniProt P23443); test: p70S6K inhibition, in vitro studies at Reaction Biology Corporation; format: biochemical; conditions: 25 nM compound, [ATP]=10 uM
Method: The nature of the substituent on the imidazo[1,2-b]pyridazine moiety at position-6 was evaluated in in vitro studies performed at Reaction Biology Corporation (Malvern, PA). The results indicated the specific substituent dramatically affected the inhibition of p70S6K.

[3] = target: T1, MER Proto-Oncogene tyrosine kinase (MERTK) (Homo sapiens, UniProt Q12866); test: KINOMEscan competition binding assay (Eurofins DiscoverX), MERTK
T1 construct: purchased Eurofins DiscoverX (KINOMEscan service)
T1 sequence (Q12866 21-999): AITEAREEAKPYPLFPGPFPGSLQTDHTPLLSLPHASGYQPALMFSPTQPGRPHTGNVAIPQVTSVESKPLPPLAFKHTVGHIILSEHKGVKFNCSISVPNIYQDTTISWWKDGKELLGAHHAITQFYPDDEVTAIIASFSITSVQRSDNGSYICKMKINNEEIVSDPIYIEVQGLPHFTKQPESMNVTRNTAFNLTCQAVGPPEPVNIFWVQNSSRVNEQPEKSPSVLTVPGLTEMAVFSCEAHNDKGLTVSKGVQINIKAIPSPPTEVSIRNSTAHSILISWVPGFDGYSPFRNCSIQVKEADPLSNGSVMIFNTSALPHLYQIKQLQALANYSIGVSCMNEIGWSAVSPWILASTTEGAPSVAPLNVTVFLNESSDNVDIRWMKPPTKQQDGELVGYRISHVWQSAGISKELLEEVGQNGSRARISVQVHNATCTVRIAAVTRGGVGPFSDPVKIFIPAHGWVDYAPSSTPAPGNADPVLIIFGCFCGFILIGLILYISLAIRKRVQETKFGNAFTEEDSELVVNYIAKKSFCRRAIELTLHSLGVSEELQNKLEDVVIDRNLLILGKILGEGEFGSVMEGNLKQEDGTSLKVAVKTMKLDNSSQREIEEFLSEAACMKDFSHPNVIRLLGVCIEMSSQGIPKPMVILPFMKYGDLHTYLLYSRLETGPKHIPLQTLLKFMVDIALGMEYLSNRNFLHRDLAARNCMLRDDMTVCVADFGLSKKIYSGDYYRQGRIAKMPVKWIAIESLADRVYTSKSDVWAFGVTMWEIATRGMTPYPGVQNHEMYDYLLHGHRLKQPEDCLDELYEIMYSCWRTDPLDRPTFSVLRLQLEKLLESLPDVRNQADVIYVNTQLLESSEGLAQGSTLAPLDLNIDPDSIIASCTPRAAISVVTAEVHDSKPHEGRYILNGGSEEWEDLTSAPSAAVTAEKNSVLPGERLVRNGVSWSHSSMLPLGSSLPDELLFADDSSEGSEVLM
Method: The affinity of several compounds hereof having a substituent on the imidazo[1,2-b]pyridazine moiety at position-6, wherein the substituent comprised one or more ring moieties was evaluated with respect to two TAM kinases: AXL and MERTK. Perhaps more specifically, the equilibrium dissociation constant between each of compounds HSND141, compound HSND149, HSND150, HSND151, and HSND80 and AXL and MERTK was evaluated at Eurofins DiscoverX using KINOMEscan™, which is a competition binding assay that quantitively measured the ability of each tested compound to displace an immobilized, active-site directed ligand. The assay uses DNA-tagged kinase, an immobilized ligand, and the test compound. Quantitative polymerase chain reaction (PCR) of the DNT tag was then used to measure the ability of the tested compound to displace the immobilized ligand.

[4] = Oral bioavailability study in mice; format: in vivo, Male CD1 Mice; conditions: 10 mg/Kg, FIG. 5
Method: The bioavailability and Cmax of the ring-6-substituted imidazo[1,2-b]pyridazine compounds were also assessed.
Briefly, compounds were dissolved in 10% dimethylsulfoxide (DMSO)/90% (20% HP-β-CD in water (w/w)). Male CD1 Mice (n=3) were dosed orally with 10 mg/Kg of each compound (HSND80, HSND41, HSND101, HSND102, HSND141, and HSND156). Blood was sampled at 0.25 hours, 0.5 hour, 1 hour, 2 hours, 4 hours, 8 hours, and 24 hours post dose, and the concentration of compound in blood at each specific time point was determined via liquid chromatography-mass spectrometry (LC-MS) (high-performance liquid chromatography (HPLC) instrument: Shimadzu; MS instrument: AB API 5500 LC/MS/MS; Column: HALO C18 90 A 2.7 μm (30*2.1 mm); Mobile phase A: 5% Acetonitrile in Water (0.1% Formic acid); Mobile phase B: 95% Acetonitrile in Water (0.1% Formic acid)).

p70S6K, sequence (P23443 whole entry): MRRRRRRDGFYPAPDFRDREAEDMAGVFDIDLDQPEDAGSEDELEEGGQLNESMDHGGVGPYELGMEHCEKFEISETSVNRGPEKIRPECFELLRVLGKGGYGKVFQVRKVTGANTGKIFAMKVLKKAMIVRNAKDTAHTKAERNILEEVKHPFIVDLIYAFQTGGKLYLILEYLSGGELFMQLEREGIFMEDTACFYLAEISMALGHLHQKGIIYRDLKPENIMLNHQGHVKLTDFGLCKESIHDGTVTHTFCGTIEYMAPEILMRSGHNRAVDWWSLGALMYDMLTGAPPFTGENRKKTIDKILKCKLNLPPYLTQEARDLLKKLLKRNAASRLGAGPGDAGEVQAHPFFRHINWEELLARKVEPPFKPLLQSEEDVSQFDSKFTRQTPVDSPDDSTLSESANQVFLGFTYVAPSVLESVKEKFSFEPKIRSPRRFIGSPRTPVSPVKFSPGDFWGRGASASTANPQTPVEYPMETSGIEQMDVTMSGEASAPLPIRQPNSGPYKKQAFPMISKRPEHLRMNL

inhibition of p70S6K (p70S6K): 97%
Kd ([3]; FIG. 7A, replicate 1, read-out: Kd MERTK, replicate 1): 1.6 nM
Kd ([3]; FIG. 7B, replicate 2, read-out: Kd MERTK, replicate 2): 2.1 nM
Kd ([3]; Table 1, DiscoverX Eurofins, read-out: Kd MERTK): < 0.17 nM
Compound: C[C@@H]1CN(c2ccc3ncc(C#Cc4cncc(C(=O)Nc5ccc(CN6CCN(C)CC6)c(C(F)(F)F)c5)c4)n3n2)C[C@H](C)O1 [HSND80, 5-((6-((2S,6R)-2,6-Dimethylmorpholino)imidazo[1,2-b]pyridazin-3-yl)ethynyl)-N-(4-((4-methylpiperazin-1-yl)methyl)-3-(trifluoromethyl)phenyl)nicotinamide]
inhibition of multiple myeloma cell lines [1]: potently inhibited
tumor reduction compared to vehicle control (CT-26 C2 tumor cells): 45%
reduction of growth of 4T1 tumor [2]: ~60%
inhibition at 0.2 µM (Caki-1 (renal cancer)): 100%
bioavailability [4]: more bioavailablity than unsubstituted morpholine (compound HSND41)
